ChEMBL document CHEMBL4765323, “Design, synthesis, and biological evaluation of novel miconazole analogues containing selenium as potent antifungal agents” (Eur J Med Chem, 2020)
Converted amounts (≈) assume the structure as drawn.

Tests used:
[1] = test system: Candida albicans; experiment: Antifungal activity against Candida albicans CPCC400616 measured after 24 hrs by micro-broth dilution assay; assay type: functional
[2] = test system: Candida albicans; experiment: Antifungal activity against Candida albicans ATCC SC5314 measured after 24 hrs by micro-broth dilution assay; assay type: functional
[3] = test system: [Candida] zeylanoides; experiment: Antifungal activity against Candida zeylanoides CMGCC2.3739 measured after 24 hrs by micro-broth dilution assay; assay type: functional; conditions: Dujonia zeylanoides
[4] = test system: Cryptococcus neoformans; experiment: Antifungal activity against Cryptococcus neoformans CGMCC2.3161 measured after 72 hrs by micro-broth dilution assay; assay type: functional
[5] = test system: Pichia kudriavzevii; experiment: Antifungal activity against Candida krusei AS 2.1045 measured after 24 hrs by micro-broth dilution assay; assay type: functional
[6] = test system: Nakaseomyces glabratus; experiment: Antifungal activity against clinical isolate Candida glabrata measured after 24 hrs by micro-broth dilution assay; assay type: functional
[7] = test system: Candida parapsilosis; experiment: Antifungal activity against Candida parapsilosis ATCC 22019 measured after 24 hrs by micro-broth dilution assay; assay type: functional; conditions: Lodderomyces parapsilosis
[8] = test system: Aspergillus fumigatus; experiment: Antifungal activity against Aspergillus fumigatus CGMCC 3.7795 measured after 72 hrs by micro-broth dilution assay; assay type: functional
[9] = test system: Candida albicans; experiment: Fungicidal activity against Candida albicans CPCC400616 measured after 48 hrs; assay type: functional
[10] = Ratio of MFC for fungicidal activity against Candida albicans CPCC400616 to MIC for Antifungal activity against Candida albicans CPCC400616; assay type: functional; conditions: time 24 hrs
[11] = test system: Candida albicans; experiment: Inhibition of CYP51 in azole-resistant Candida albicans ATCC […] assessed as ergosterol level at 0.03125 ug/ml incubated for 16 hrs by LC-MS analysis relative to control; parameters: scale not given: the % may be the effect or the level left; conditions: dose 0.03125 µg/ml
[12] = test system: Candida albicans; experiment: Inhibition of CYP51 in azole-resistant Candida albicans ATCC […] assessed as ergosterol level at 0.125 ug/ml incubated for 16 hrs by LC-MS analysis relative to control; parameters: scale not given: the % may be the effect or the level left; conditions: dose 0.125 µg/ml
[13] = test system: Candida albicans; experiment: Inhibition of CYP51 in azole-resistant Candida albicans ATCC […] assessed as ergosterol level at 0.5 ug/ml incubated for 16 hrs by LC-MS analysis relative to control; parameters: scale not given: the % may be the effect or the level left; conditions: dose 0.5 µg/ml
[14] = test system: Candida albicans; experiment: Inhibition of CYP51 in azole-resistant Candida albicans ATCC […] assessed as ergosterol level at 2 ug/ml incubated for 16 hrs by LC-MS analysis relative to control; parameters: scale not given: the % may be the effect or the level left; conditions: dose 2.0 µg/ml
[15] = test system: Candida albicans; experiment: Antibiofilm activity against FCZ-Resistant Candida albicans CPCC400616 assessed as sessile minimum inhibitory concentration of biofilm formation at 50% after 1.5 hrs by XTT assay; assay type: functional
[16] = test system: Candida albicans; experiment: Antibiofilm activity against FCZ-Resistant Candida albicans CPCC400616 assessed as sessile minimum inhibitory concentration of biofilm formation at 50% after 3 hrs by XTT assay; assay type: functional
[17] = test system: Candida albicans; experiment: Antibiofilm activity against FCZ-Resistant Candida albicans CPCC400616 assessed as sessile minimum inhibitory concentration of biofilm formation at 50% after 6 hrs by XTT assay; assay type: functional
[18] = test system: Candida albicans; experiment: Antibiofilm activity against FCZ-Resistant Candida albicans CPCC400616 assessed as sessile minimum inhibitory concentration of biofilm formation at 50% after 24 hrs by XTT assay; assay type: functional
[19] = test system: Candida albicans; experiment: Antibiofilm activity against FCZ-Resistant Candida albicans CPCC400616 assessed as sessile minimum inhibitory concentration of biofilm formation at 80% after 1.5 hrs by XTT assay; assay type: functional
[20] = test system: Candida albicans; experiment: Antibiofilm activity against FCZ-Resistant Candida albicans CPCC400616 assessed as sessile minimum inhibitory concentration of biofilm formation at 80% after 3 hrs by XTT assay; assay type: functional
[21] = test system: Candida albicans; experiment: Antibiofilm activity against FCZ-Resistant Candida albicans CPCC400616 assessed as sessile minimum inhibitory concentration of biofilm formation at 80% after 6 hrs by XTT assay; assay type: functional
[22] = test system: Candida albicans; experiment: Antibiofilm activity against FCZ-Resistant Candida albicans CPCC400616 assessed as sessile minimum inhibitory concentration of biofilm formation at 80% after 24 hrs by XTT assay; assay type: functional
[23] = Ratio of hemolysis activity in rabbit RBC to MIC for Candida albicans; assay type: toxicity; conditions: rabbit red blood cells (RBC)
[24] = test system: Candida albicans; experiment: Inhibition of CYP51 in azole-resistant Candida albicans ATCC […] assessed as Obtusifoliol level at 0.03125 ug/ml incubated for 16 hrs by LC-MS analysis relative to control; parameters: scale not given: the % may be the effect or the level left; conditions: dose 0.03125 µg/ml
[25] = test system: Candida albicans; experiment: Inhibition of CYP51 in azole-resistant Candida albicans ATCC […] assessed as Obtusifoliol level at 0.125 ug/ml incubated for 16 hrs by LC-MS analysis relative to control; parameters: scale not given: the % may be the effect or the level left; conditions: dose 0.125 µg/ml
[26] = test system: Candida albicans; experiment: Inhibition of CYP51 in azole-resistant Candida albicans ATCC […] assessed as Obtusifoliol level at 0.5 ug/ml incubated for 16 hrs by LC-MS analysis relative to control; parameters: scale not given: the % may be the effect or the level left; conditions: dose 0.5 µg/ml
[27] = test system: Candida albicans; experiment: Inhibition of CYP51 in azole-resistant Candida albicans ATCC […] assessed as Obtusifoliol level at 2 ug/ml incubated for 16 hrs by LC-MS analysis relative to control; parameters: scale not given: the % may be the effect or the level left; conditions: dose 2.0 µg/ml
[28] = test system: Candida albicans; experiment: Inhibition of CYP51 in azole-resistant Candida albicans ATCC […] assessed as Obtusifoliol level at 8 ug/ml incubated for 16 hrs by LC-MS analysis relative to control; parameters: scale not given: the % may be the effect or the level left; conditions: dose 8.0 µg/ml
[29] = test system: Candida albicans; experiment: Inhibition of CYP51 in azole-resistant Candida albicans ATCC […] assessed as Lanosterol level at 0.03125 ug/ml incubated for 16 hrs by LC-MS analysis relative to control; parameters: scale not given: the % may be the effect or the level left; conditions: dose 0.03125 µg/ml
[30] = test system: Candida albicans; experiment: Inhibition of CYP51 in azole-resistant Candida albicans ATCC […] assessed as Lanosterol level at 0.125 ug/ml incubated for 16 hrs by LC-MS analysis relative to control; parameters: scale not given: the % may be the effect or the level left; conditions: dose 0.125 µg/ml
[31] = test system: Candida albicans; experiment: Inhibition of CYP51 in azole-resistant Candida albicans ATCC […] assessed as Lanosterol level at 0.5 ug/ml incubated for 16 hrs by LC-MS analysis relative to control; parameters: scale not given: the % may be the effect or the level left; conditions: dose 0.5 µg/ml
[32] = test system: Candida albicans; experiment: Inhibition of CYP51 in azole-resistant Candida albicans ATCC […] assessed as Lanosterol level at 2 ug/ml incubated for 16 hrs by LC-MS analysis relative to control; parameters: scale not given: the % may be the effect or the level left; conditions: dose 2.0 µg/ml
[33] = test system: Candida albicans; experiment: Inhibition of CYP51 in azole-resistant Candida albicans ATCC […] assessed as Lanosterol level at 8 ug/ml incubated for 16 hrs by LC-MS analysis relative to control; parameters: scale not given: the % may be the effect or the level left; conditions: dose 8.0 µg/ml
[34] = test system: Candida albicans; experiment: Inhibition of CYP51 in azole-resistant Candida albicans ATCC […] assessed as Eburicol level at 0.03125 ug/ml incubated for 16 hrs by LC-MS analysis relative to control; parameters: scale not given: the % may be the effect or the level left; conditions: dose 0.03125 µg/ml
[35] = test system: Candida albicans; experiment: Inhibition of CYP51 in azole-resistant Candida albicans ATCC […] assessed as Eburicol level at 0.125 ug/ml incubated for 16 hrs by LC-MS analysis relative to control; parameters: scale not given: the % may be the effect or the level left; conditions: dose 0.125 µg/ml
[36] = test system: Candida albicans; experiment: Inhibition of CYP51 in azole-resistant Candida albicans ATCC […] assessed as Eburicol level at 0.5 ug/ml incubated for 16 hrs by LC-MS analysis relative to control; parameters: scale not given: the % may be the effect or the level left; conditions: dose 0.5 µg/ml
[37] = test system: Candida albicans; experiment: Inhibition of CYP51 in azole-resistant Candida albicans ATCC […] assessed as Eburicol level at 2 ug/ml incubated for 16 hrs by LC-MS analysis relative to control; parameters: scale not given: the % may be the effect or the level left; conditions: dose 2.0 µg/ml
[38] = test system: Candida albicans; experiment: Inhibition of CYP51 in azole-resistant Candida albicans ATCC […] assessed as Eburicol level at 8 ug/ml incubated for 16 hrs by LC-MS analysis relative to control; parameters: scale not given: the % may be the effect or the level left; conditions: dose 8.0 µg/ml
[39] = test system: Candida albicans; experiment: Inhibition of CYP51 in azole-resistant Candida albicans ATCC […] assessed as inhibition of ergosterol biosynthesis by measuring ergosterol content at 8 ug/ml incubated for 16 hrs by LC-MS analysis relative to control; parameters: scale not given: the % may be the effect or the level left; conditions: dose 8.0 µg/ml
[40] = test system: Candida albicans; experiment: Antifungal activity against fluconazole-resistant Candida albicans CaR measured after 24 hrs by micro-broth dilution assay; assay type: functional
[41] = test system: Candida albicans; experiment: Antifungal activity against fluconazole-resistant Candida albicans 17 measured after 24 hrs by micro-broth dilution assay; assay type: functional
[42] = test system: Candida albicans; experiment: Antifungal activity against fluconazole-resistant Candida albicans 632 measured after 24 hrs by micro-broth dilution assay; assay type: functional
[43] = test system: Candida albicans; experiment: Antifungal activity against Candida albicans 901 measured after 24 hrs by micro-broth dilution assay; assay type: functional
[44] = test system: Candida albicans; experiment: Antifungal activity against fluconazole-resistant Candida albicans strain 904 measured after 24 hrs by micro-broth dilution assay; assay type: functional

SMILES | MIC [1] | MIC [2] | MIC [3] | MIC [4] | MIC [5] | MIC [6] | MIC [7] | MIC [8] | Activity [11] | Activity [12] | Activity [13] | Activity [14] | Activity [24] | Activity [25] | Activity [26] | Activity [27] | Activity [28] | Activity [29] | Activity [30] | Activity [31] | further results
Clc1ccc(COC(Cn2ccnc2)c2ccc(Cl)cc2Cl)c(Cl)c1 (configuration not stated) [MICONAZOLE] | 0.25 µg/mL (≈ 0.601 µM) | 0.03 µg/mL (≈ 0.0721 µM) | 1 µg/mL (≈ 2.4 µM) | 0.5 µg/mL (≈ 1.2 µM) | 0.5 µg/mL (≈ 1.2 µM) | 0.5 µg/mL (≈ 1.2 µM) | 0.25 µg/mL (≈ 0.601 µM) | 2 µg/mL (≈ 4.81 µM) | 11.3% | 7.3% | 8.3% | 5.49% | 2.9% | 7.2% | 6.1% | 9.7% | 14.6% | 12.4% | 14.1% | 8.9% | MIC [9]: 2 µg/mL (≈ 4.81 µM); MFC/MIC ratio [10]: 8; Activity [15]: 16 µg/mL; Activity [16]: 32 µg/mL; Activity [17]: >128 µg/mL; Activity [18]: >128 µg/mL; Activity [19]: 128 µg/mL; Activity [20]: 128 µg/mL; Activity [21]: >128 µg/mL; Activity [22]: >128 µg/mL; selectivity ratio [23]: 8; Activity [32]: 6.4%; Activity [33]: 7.8%; Activity [34]: 2.9%; Activity [35]: 63.5%; Activity [36]: 64.8%; Activity [37]: 80.7%; Activity [38]: 74.2%; Activity [39]: 0%
OC(Cn1cncn1)(Cn1cncn1)c1ccc(F)cc1F [FLUCONAZOLE] | 4 µg/mL (≈ 13.1 µM) | 1 µg/mL (≈ 3.27 µM) | 4 µg/mL (≈ 13.1 µM) | 4 µg/mL (≈ 13.1 µM) | 32 µg/mL (≈ 104 µM) | 32 µg/mL (≈ 104 µM) | 4 µg/mL (≈ 13.1 µM) | > 128 µg/mL | 12.2% | 8.3% | 7.1% | 5.2% | 1.6% | 11.4% | 9% | 17.7% | 9.2% | 9.8% | 7.2% | 9.5% | MIC [40]: > 128 µg/mL; MIC [41]: 128 µg/mL (≈ 418 µM); MIC [42]: > 128 µg/mL; MIC [43]: > 128 µg/mL; MIC [44]: > 128 µg/mL; Activity [32]: 7.4%; Activity [33]: 9.4%; Activity [34]: 2.9%; Activity [35]: 6.7%; Activity [36]: 70.6%; Activity [37]: 75.2%; Activity [38]: 70.6%; Activity [39]: 74.8%
